target: T1, BTK (Homo sapiens, UniProt Q06187); test: BTK degradation activity test in Mino cells; type: cell-based; settings: 16 h incubation, Western blot or Elisa
T1 construct: endogenous in cells; host or cells: Mino cells
Procedure, shortened: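 DC50 derived by curve fitting of BTK degradation rates versus untreated control across compound concentrations. Mino cells were exposed for 16 h; BTK levels in lysates, normalised via BCA protein, measured by Western blot or ELISA.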

T1 sequence (Q06187 whole entry): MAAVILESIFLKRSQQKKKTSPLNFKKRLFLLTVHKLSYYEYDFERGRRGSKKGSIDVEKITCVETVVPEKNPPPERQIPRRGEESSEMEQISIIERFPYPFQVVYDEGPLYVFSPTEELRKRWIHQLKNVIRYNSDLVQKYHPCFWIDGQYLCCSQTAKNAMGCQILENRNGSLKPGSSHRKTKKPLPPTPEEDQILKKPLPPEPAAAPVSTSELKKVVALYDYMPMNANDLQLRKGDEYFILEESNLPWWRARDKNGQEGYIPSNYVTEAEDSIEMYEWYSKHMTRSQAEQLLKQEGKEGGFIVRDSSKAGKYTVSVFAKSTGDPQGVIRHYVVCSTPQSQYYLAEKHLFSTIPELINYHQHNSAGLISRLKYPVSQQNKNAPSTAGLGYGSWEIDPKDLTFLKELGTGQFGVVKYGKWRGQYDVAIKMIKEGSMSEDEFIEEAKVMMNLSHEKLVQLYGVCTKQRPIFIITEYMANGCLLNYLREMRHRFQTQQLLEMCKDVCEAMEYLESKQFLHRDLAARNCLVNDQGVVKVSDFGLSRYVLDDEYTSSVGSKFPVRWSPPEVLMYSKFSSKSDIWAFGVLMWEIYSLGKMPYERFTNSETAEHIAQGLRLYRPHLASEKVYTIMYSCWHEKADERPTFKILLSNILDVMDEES

DC50 | SMILES
< 1 nM | CN1CCN(C2CC3CC2N(c2nnc(C(N)=O)c(Nc4ccc(C5CCN(C6CN(c7ccc8c(c7)C(=O)N(C7CCC(=O)NC7=O)C8=O)C6)CC5)cc4)n2)C3)C1=O (stereo not shown) [Compound 049, 5-((4-(1-(1-(2-(2,6-dioxopiperidin-3-yl)-1,3-dioxoisoindolin-5-yl)azetidin-3-yl)piperidin-4-yl)phenyl)amino)-3-(-6-(3-methyl-2-oxoimidazolin-1-yl)-2-azabicyclo[2.2.1]heptan-2-yl)-1,2,4-triazin-6-carboxamide]
< 1 nM | CN1CCN(C2CC3CCC2N(c2cnc(C(N)=O)c(Nc4ccc(C5CCN(C6CN(c7ccc8c(c7)C(=O)N(C7CCC(=O)NC7=O)C8=O)C6)CC5)cc4)n2)C3)C1=O (stereo not shown) [Compound 050, 3-((4-(1-(1-(2-(2,6-dioxopiperidin-3-yl)-1,3-dioxoisoindolin-5-yl)azetidin-3-yl)piperidin-4-yl)phenyl)amino)-5-(-6-(3-methyl-2-oxoimidazolin-1-yl)-2-azabicyclo[2.2.2]octan-2-yl)pyrazin-2-carboxamide]
< 1 nM | CN1CCN(C2CC3CC2N(c2nnc(C(N)=O)c(Nc4ccc(C5CCN(C6CN(c7cc8c(cc7F)C(=O)N(C7CCC(=O)NC7=O)C8=O)C6)CC5)cc4)n2)C3)C1=O (stereo not shown) [Compound 051, 5-((4-(1-(1-(2-(2,6-dioxopiperidin-3-yl)-6-fluoro-1,3-dioxoisoindolin-5-yl)azetidin-3-yl)piperidin-4-yl)phenyl)amino)-3-(-6-(3-methyl-2-oxoimidazolin-1-yl)-2-azabicyclo[2.2.1]heptan-2-yl)-1,2,4-triazin-6-carboxamide]
< 1 nM | NC(=O)c1ncc(N2CCCC(N3CCN(C4CCCC4)C3=O)C2)nc1Nc1ccc(C2CCN(CC3CCN(c4cc5c(cc4F)C(=O)N(C4CCC(=O)NC4=O)C5=O)C3)CC2)cc1 (stereo not shown) [Compound 052, 5-(3-(3-cyclopentyl-2-oxoimidazolin-1-yl)piperidin-1-yl)-3-((4-(1-((1-(2-(2,6-dioxopiperidin-3-yl)-6-fluoro-1,3-dioxoisoindolin-5-yl)pyrrolidin-3-yl)methyl)piperidin-4-yl)phenyl)amino)pyrazin-2-carboxamide]
< 1 nM | CN1CCN(C2CCCN(c3nnc(C(N)=O)c(Nc4ccc(C5CCN(CC6CCN(c7ccc8c(c7)C(=O)N(C7CCC(=O)NC7=O)C8=O)CC6)CC5)cc4)n3)C2)C1=O (stereo not shown) [Compound 053, 5-((4-(1-((1-(2-(2,6-dioxopiperidin-3-yl)-1,3-dioxoisoindol-5-yl)piperidin-4-yl)methyl)piperidin-4-yl)phenyl)amino)-3-(3-(3-methyl-2-oxoimidazolin-1-yl)piperidin-1-yl)-1,2,4-triazin-6-carboxamide]
< 1 nM | CCN1CCN(C2CCCN(c3nnc(C(N)=O)c(Nc4ccc(C5CCN(CC6CCN(c7ccc8c(c7)C(=O)N(C7CCC(=O)NC7=O)C8=O)CC6)CC5)cc4)n3)C2)C1=O (stereo not shown) [Compound 054, 5-((4-(1-((1-(2-(2,6-dioxopiperidin-3-yl)-1,3-dioxoisooctyl-5-yl)piperidin-4-yl)methyl)piperidin-4-yl)phenyl)amino)-3-(3-(3-ethyl-2-oxyimidazolin-1-yl)piperidin-1-yl)-1,2,4-triazin-6-carboxamide]
< 1 nM | CC(C)N1CCN(C2CCCN(c3nnc(C(N)=O)c(Nc4ccc(C5CCN(CC6CCN(c7ccc8c(c7)C(=O)N(C7CCC(=O)NC7=O)C8=O)CC6)CC5)cc4)n3)C2)C1=O (stereo not shown) [Compound 055, 5-((4-(1-((1-(2-(2,6-dioxopiperidin-3-yl)-1,3-dioxoisoindol-5-yl)piperidin-4-yl)methyl)piperidin-4-yl)phenyl)amino)-3-(3-(3-isopropyl-2-oxoimidazolin-1-yl)piperidin-1-yl)-1,2,4-triazin-6-carboxamide]
< 1 nM | NC(=O)c1nnc(N2CCCC(N3CCN(C(F)(F)F)C3=O)C2)nc1Nc1ccc(C2CCN(CC3CCN(c4ccc5c(c4)C(=O)N(C4CCC(=O)NC4=O)C5=O)CC3)CC2)cc1 (stereo not shown) [Compound 056, 5-((4-(1-((1-(2-(2,6-dioxopiperidin-3-yl)-1,3-dioxoisoindol-5-yl)piperidin-4-yl)methyl)piperidin-4-yl)phenyl)amino)-3-(3-(2-oxo-3-(trifluoromethyl)imidazolin-1-yl)piperidin-1-yl)-1,2,4-triazin-6-carboxamide]
< 1 nM | NC(=O)c1nnc(N2CCCC(N3CCN(CC(F)(F)F)C3=O)C2)nc1Nc1ccc(C2CCN(CC3CCN(c4ccc5c(c4)C(=O)N(C4CCC(=O)NC4=O)C5=O)CC3)CC2)cc1 (stereo not shown) [Compound 057, 5-((4-(1-((1-(2-(2,6-dioxopiperidin-3-yl)-1,3-dioxoisoindol-5-yl)piperidin-4-yl)methyl)piperidin-4-yl)phenyl)amino)-3-(3-(2-oxo-3-(2,2,2-trifluoroethyl)imidazolin-1-yl)piperidin-1-yl)-1,2,4-triazin-6-carboxamide]
< 1 nM | NC(=O)c1nnc(N2CCCC(N3CCN(C4CC4)C3=O)C2)nc1Nc1ccc(C2CCN(CC3CCN(c4ccc5c(c4)C(=O)N(C4CCC(=O)NC4=O)C5=O)CC3)CC2)cc1 (stereo not shown) [Compound 058, 3-(3-(3-cyclopropyl-2-oxoimidazolin-1-yl)piperidin-1-yl)-5-((4-(1-((1-(2-(2,6-dioxopiperidin-3-yl)-1,3-dioxoisoindol-5-yl)piperidin-4-yl)methyl)piperidin-4-yl)phenyl)amino)-1,2,4-triazin-6-carboxamide]
> 1 nM | NC(=O)c1nnc(N2CCCC(N3CCN(C4CCC4)C3=O)C2)nc1Nc1ccc(C2CCN(CC3CCN(c4ccc5c(c4)C(=O)N(C4CCC(=O)NC4=O)C5=O)CC3)CC2)cc1 (stereo not shown) [Compound 059, 3-(3-(3-cyclobutyl-2-oxoimidazolin-1-yl)piperidin-1-yl)-5-((4-(1-((1-(2-(2,6-dioxopiperidin-3-yl)-1,3-dioxoisoindol-5-yl)piperidin-4-yl)methyl)piperidin-4-yl)phenyl)amino)-1,2,4-triazin-6-carboxamide]
< 1 nM | NC(=O)c1nnc(N2CCCC(N3CCN(C4CCCC4)C3=O)C2)nc1Nc1ccc(C2CCN(CC3CCN(c4ccc5c(c4)C(=O)N(C4CCC(=O)NC4=O)C5=O)CC3)CC2)cc1 (stereo not shown) [Compound 060, 3-(3-(3-cyclopentyl-2-oxoimidazolin-1-yl)piperidin-1-yl)-5-((4-(1-((1-(2-(2,6-dioxopiperidin-3-yl)-1,3-dioxoisoindol-5-yl)piperidin-4-yl)methyl)piperidin-4-yl)phenyl)amino)-1,2,4-triazin-6-carboxamide]
< 1 nM | NC(=O)c1nnc(N2CCCC(N3CCN(C4CCCCC4)C3=O)C2)nc1Nc1ccc(C2CCN(CC3CCN(c4ccc5c(c4)C(=O)N(C4CCC(=O)NC4=O)C5=O)CC3)CC2)cc1 (stereo not shown) [Compound 061, 3-(3-(3-cyclohexyl-2-oxoimidazolin-1-yl)piperidin-1-yl)-5-((4-(1-((1-(2-(2,6-dioxopiperidin-3-yl)-1,3-dioxoisoindol-5-yl)piperidin-4-yl)methyl)piperidin-4-yl)phenyl)amino)-1,2,4-triazin-6-carboxamide]
< 1 nM | NC(=O)c1nnc(N2CCCC(N3CCN(C4COC4)C3=O)C2)nc1Nc1ccc(C2CCN(CC3CCN(c4ccc5c(c4)C(=O)N(C4CCC(=O)NC4=O)C5=O)CC3)CC2)cc1 (stereo not shown) [Compound 062, 5-((4-(1-((1-(2-(2,6-dioxopiperidin-3-yl)-1,3-dioxoisoindol-5-yl)piperidin-4-yl)methyl)piperidin-4-yl)phenyl)amino)-3-(3-(3-(oxetan-3-yl)-2-oxoimidazolin-1-yl)piperidin-1-yl)-1,2,4-triazin-6-carboxamide]
> 1 nM | NC(=O)c1nnc(N2CCCC(N3CCN(C4CCOCC4)C3=O)C2)nc1Nc1ccc(C2CCN(CC3CCN(c4ccc5c(c4)C(=O)N(C4CCC(=O)NC4=O)C5=O)CC3)CC2)cc1 (stereo not shown) [Compound 063, 5-((4-(1-((1-(2-(2,6-dioxopiperidin-3-yl)-1,3-dioxoisoindol-5-yl)piperidin-4-yl)methyl)piperidin-4-yl)phenyl)amino)-3-(3-(2-oxo-3-(tetrahydro-2H-pyran-4-yl)imidazolin-1-yl)piperidin-1-yl)-1,2,4-triazin-6-carboxamide]
< 1 nM | NC(=O)c1nnc(N2CCCC(N3CCN(c4ccccc4)C3=O)C2)nc1Nc1ccc(C2CCN(CC3CCN(c4ccc5c(c4)C(=O)N(C4CCC(=O)NC4=O)C5=O)CC3)CC2)cc1 (stereo not shown) [Compound 064, 5-((4-(1-((1-(2-(2,6-dioxopiperidin-3-yl)-1,3-dioxoisoindol-5-yl)piperidin-4-yl)methyl)piperidin-4-yl)phenyl)amino)-3-(3-(2-oxo-3-phenylimidazolin-1-yl)piperidin-1-yl)-1,2,4-triazin-6-carboxamide]
< 1 nM | NC(=O)c1nnc(N2CCCC(N3CCN(c4ccccc4F)C3=O)C2)nc1Nc1ccc(C2CCN(CC3CCN(c4ccc5c(c4)C(=O)N(C4CCC(=O)NC4=O)C5=O)CC3)CC2)cc1 (stereo not shown) [Compound 065, 5-((4-(1-((1-(2-(2,6-dioxopiperidin-3-yl)-1,3-dioxoisoindol-5-yl)piperidin-4-yl)methyl)piperidin-4-yl)phenyl)amino)-3-(3-(3-(2-fluorophenyl)-2-oxoimidazolin-1-yl)piperidin-1-yl)-1,2,4-triazin-6-carboxamide]
< 1 nM | NC(=O)c1nnc(N2CCCC(N3CCN(c4cccc(F)c4)C3=O)C2)nc1Nc1ccc(C2CCN(CC3CCN(c4ccc5c(c4)C(=O)N(C4CCC(=O)NC4=O)C5=O)CC3)CC2)cc1 (stereo not shown) [Compound 066, 5-((4-(1-((1-(2-(2,6-dioxopiperidin-3-yl)-1,3-dioxoisoindol-5-yl)piperidin-4-yl)methyl)piperidin-4-yl)phenyl)amino)-3-(3-(3-(3-fluorophenyl)-2-oxoimidazolin-1-yl)piperidin-1-yl)-1,2,4-triazin-6-carboxamide]
< 1 nM | NC(=O)c1nnc(N2CCCC(N3CCN(c4cccnc4)C3=O)C2)nc1Nc1ccc(C2CCN(CC3CCN(c4ccc5c(c4)C(=O)N(C4CCC(=O)NC4=O)C5=O)CC3)CC2)cc1 (stereo not shown) [Compound 067, 5-((4-(1-((1-(2-(2,6-dioxopiperidin-3-yl)-1,3-dioxoisoindol-5-yl)piperidin-4-yl)methyl)piperidin-4-yl)phenyl)amino)-3-(3-(2-oxo-3-(pyridin-3-yl)imidazolin-1-yl)piperidin-1-yl)-1,2,4-triazin-6-carboxamide]
